Measured values reported in patent publication US20090258098A1, “PENETRATING CARRIER, ANTIFUNGAL COMPOSITION USING THE SAME AND METHOD FOR TREATMENT OF DERMATOPHYTE INFECTIONS” (priority 2008, published 2009).

Legend:
Trichopyton rubrum = assay: Minimum inhibitory concentration, poison media procedure; type: cell-based, Trichophyton rubrum
Procedure: (§1) Each individual essential oil component was mixed with molten modified Sabouraud agar in 100 ppm, 500 ppm, or 1000 ppm (v/v). The poison media agar was then poured and allowed to cool for at least 48 hours. Separate cultures of four dermatophytes (i.e.: E. floccosum, M. gypseum, T. mentagrophytes, and T. rubrum) were grown on modified Sabouraud agar for four days until a confluent mat of mycelium developed. The four cultures were then cut into 8 mm plugs and placed upside down with the fungi culture on the surface of the poison media. This procedure was run in triplicate. In addition, several mixtures containing various combinations of the essential oil components were tested using the same procedure. The plates were incubated for one week at 30° C. Plates were then examined for growth. Plates with no visible growth after one week on the poison media were listed as fungistatic
(§2) Plugs showing no growth on the poison media were then transferred to modified SDA, allowed to incubate for an additional week at 30° C., and then reexamined for growth. All components were run in triplicate. Plates with no growth after the additional week were listed as fungicidal.

[1] = tested on: four dermatophytes (E. floccosum, M. gypseum, T. mentagrophytes, and T. rubrum); assay: Poison media procedure; type: cell-based; settings: 100 ppm
Procedure: as §1, §2

Microsporum gypseum = assay: Minimum inhibitory concentration, poison media procedure; type: cell-based
Procedure: as §1, §2

Epidermophyton floccosum = assay: as above; type: cell-based
Procedure: as §1, §2

[2] = tested on: Trichophyton mentagrophytes; assay: as above; type: cell-based
Procedure: as §1, §2

[3] = tested on: dermatophytic fungal strains; assay: Disk assay of essential oil components; type: cell-based; settings: disk loaded with 500, 1000, 1500 or 3000 ppm
Procedure: Various embodiments of the penetrating carrier system of the present invention were tested for their antimicrobial/biostatic potential by a laboratory test method, which provides a qualitative and semi-qualitative procedure for the evaluation of antimicrobial activity by disk assay. All dermatophytic fungal strains (Table 1) were grown on modified Sabouraud agar (pH adjusted to 7). The cultures were grown for one week previous to the experiments at 30° C., while stock culture plates were maintained at 4° C. until needed. […] The sterile disk was then loaded with 500 ppm, 1000 ppm, 1500 ppm or 3000 ppm of the test compound. A control was provided by placing 2 ul of alcohol on plates that were inoculated for this purpose. The plates were incubated for seven (7) days at 30° C. The zone of inhibition was measured around each loaded disk in four directions. The average measurement was then determined and recorded in millimeters as the zone of inhibition.

[4] = 100 ppm (v/v) in modified Sabouraud agar, one week at 30° C.
[5] = 500 ppm (v/v) in modified Sabouraud agar, one week at 30° C.
[6] = 1000 ppm (v/v) in modified Sabouraud agar, one week at 30° C.

Structure (SMILES)	Growth on poison media (fungistatic / fungicidal / growth) (Trichopyton rubrum; [4])	Growth on poison media (fungistatic / fungicidal / growth) (Trichopyton rubrum; [5])	Growth on poison media (fungistatic / fungicidal / growth) (Trichopyton rubrum; [6])	Inhibition of growth [1]	Growth on poison media (fungistatic / fungicidal / growth) (Microsporum gypseum; [4])	Growth on poison media (fungistatic / fungicidal / growth) (Microsporum gypseum; [5])	Growth on poison media (fungistatic / fungicidal / growth) (Microsporum gypseum; [6])	Growth on poison media (fungistatic / fungicidal / growth) (Epidermophyton floccosum; [4])	Growth on poison media (fungistatic / fungicidal / growth) (Epidermophyton floccosum; [5])	Growth on poison media (fungistatic / fungicidal / growth) (Epidermophyton floccosum; [6])	Growth on poison media (fungistatic / fungicidal / growth) [2, 4]	Growth on poison media (fungistatic / fungicidal / growth) [2, 5]	Growth on poison media (fungistatic / fungicidal / growth) [2, 6]	Rank among essential oil components in the disk assay [3]	further results
Cc1ccc(C(C)C)cc1O [Carvacrol]	fungistatic	fungicidal	fungicidal	inhibit the growth of several organisms	fungistatic	fungicidal	fungicidal	[empty]	fungicidal	fungicidal	[empty]	fungicidal	fungicidal	most inhibitory	–
O=CC=Cc1ccccc1 [Cinnamaldehyde]	[empty]	fungicidal	fungicidal	–	[empty]	fungicidal	fungicidal	[empty]	fungicidal	fungicidal	[empty]	[empty]	fungicidal	most inhibitory	–
CC(C)=CCCC(C)=CC=O [Citral]	[empty]	[empty]	fungicidal	–	[empty]	[empty]	fungicidal	[empty]	[empty]	[empty]	[empty]	[empty]	fungistatic	most inhibitory	–
C=CCc1ccc(O)c(OC)c1 [Eugenol]	[empty]	fungistatic	fungicidal	–	[empty]	fungicidal	fungicidal	[empty]	fungicidal	fungicidal	[empty]	fungistatic	fungistatic	most inhibitory	–
C=CCc1ccc(OC)c(OC)c1 [Methyl Eugenol]	–	–	–	–	–	–	–	–	–	–	–	–	–	–	Growth on poison media (fungistatic / fungicidal / growth) (Trichopyton rubrum; 168 h, 100 ppm): [empty]; Growth on poison media (fungistatic / fungicidal / growth) (Trichopyton rubrum; 168 h, 500 ppm): fungistatic; Growth on poison media (fungistatic / fungicidal / growth) (Trichopyton rubrum; 168 h, 1000 ppm): fungistatic; Growth on poison media (fungistatic / fungicidal / growth) (Microsporum gypseum; 168 h, 100 ppm): [empty]; Growth on poison media (fungistatic / fungicidal / growth) (Microsporum gypseum; 168 h, 500 ppm): fungistatic; Growth on poison media (fungistatic / fungicidal / growth) (Microsporum gypseum; 168 h, 1000 ppm): fungistatic; Growth on poison media (fungistatic / fungicidal / growth) (Epidermophyton floccosum; 168 h, 100 ppm): [empty]; Growth on poison media (fungistatic / fungicidal / growth) (Epidermophyton floccosum; 168 h, 500 ppm): fungistatic; Growth on poison media (fungistatic / fungicidal / growth) (Epidermophyton floccosum; 168 h, 1000 ppm): fungistatic; Growth on poison media (fungistatic / fungicidal / growth) ([2]; 168 h, 100 ppm): [empty]; Growth on poison media (fungistatic / fungicidal / growth) ([2]; 168 h, 500 ppm): fungistatic; Growth on poison media (fungistatic / fungicidal / growth) ([2]; 168 h, 1000 ppm): fungistatic
Cc1ccc(C(C)C)c(O)c1 [Thymol]	fungicidal	fungicidal	fungicidal	inhibit the growth of several organisms	fungistatic	fungicidal	fungicidal	fungistatic	fungicidal	fungicidal	fungistatic	fungicidal	fungicidal	most inhibitory	–
